Data on four compounds can be found in patent US5567716A, “Trans and cis traumatic acid salts having cicatrizant activity associated to bacteriostatic, antiviral, antibiotic or antifungal activity” (priority 1992, dated 1996).

Data set [1] is described as follows: Physical chemical characteristics: solubility in water and organic solvents.
For data set [2], the system named is Pseudomonas Aeruginosa ATCC.35422. In words: Antibacterial activity, diffusion method in agar-germs (2.a). The data set is classed as cell-based. The protocol: (§1) In a Tryprone Soy Agar diffusion medium ATCC (American Type Culture Collection) standard bacterial strains are inoculated, preparing a final solution of 10^6 cfu/g (colony forming unities) of the following strains:
(§2) Every plate contains 20 ml of a medium where 2 equidistant wells having a standard diameter are Formed and in each of these wells […] of the above described bacterial solution are inoculated. 2 plates are prepared for every couple of compounds to be tested at different concentrations, and For every strain, and each of these plates is compared with a white (sterile demineralized water inoculum). After the inoculum, the plates are placed in the refrigerator to favour diffusion and temporaneously blocking bacterial growth.
(§3) The compounds hexadecyltrimethylammonium traumatate and benzyldimethylhexadecylammonium traumatare respectively versus hexadecyl trimethylammonium bromide and benzyldimethylhexadecylammonium chloride are solubilized in demineralized water to Form solutions at the concentrations: 0.1; 0.5; and 1%.
(§4) The antibacterial effect is evaluated by measuring bacterial diffusion halo around the well vs white (halo absence).

The next data set deals with E. Coli ATCC.35218. The description is as above. Format: cell-based. Here is the method: as §1, §2, §3, §4
In another data set the test system is PS Maltophila ATCC.13637. Described as above. The data set is classed as cell-based. The protocol: as §1, §2, §3, §4
In another data set the test system is PS Cepacia ATCC.25416. The description is as above. Format: cell-based. Details: unit not given here. The protocol: as §1, §2, §3, §4
Data set [3] has as its system Stafilococcus Epidermidis ATCC.14990. Described as above. The data set is classed as cell-based. Details: unit not given here. The protocol: as §1, §2, §3, §4
Data set [4] concerns Candida Albicans ATCC.10231. Described as above. Details: unit not given here. The data set is classed as cell-based. The protocol:
as §1, §2, §3, §4

In data set [5] the test system is Aspergillus Niger ATCC 16404. The description is as above. The data set is classed as cell-based. Also noted: unit not given here. The protocol:
as §1, §2, §3, §4

Data set [6] deals with Stafilococcus Aureus ATCC.65380. Described as above. Format: cell-based. Details: unit not given here. The protocol:
as §1, §2, §3, §4

Data set [7] deals with Streptococcus Fecalis ATCC.291212. The description is as above. Also noted: unit not given here. Format: cell-based. The protocol: as §1, §2, §3, §4
A further data set has as its system 3T3 fibroblasts. In words: Cellular proliferation of 3T3 fibroblasts, neutral red colorimetry (1.1a). Format: cell-based, Mice. The protocol: Experiments on 3T3 fibroblasts
Mice 3T3 fibroblasts cultures sown at a 40.000/ml concentration on plates having 6 wells in a DMEM culture medium enriched with 10% calf serum are used. After 24 hours culture, the 90 prepared wells are divided in order to allow the analyses of the compounds of the invention, every compound to be tested being used respectively at a concentration of 0.1, 1 and 10 μg/ml by subsequent evaluations after 48 and 72 hours of incubation.
Hexadecyltrimethylammoniun (ETA) traumatare: solubilized in water and brought to the desired final concentrations of 0.1. 1 and 10 μg/ml by progressive dilutions;
Ethanolamine traumatate: solubilized in water and brought to the final concentrations of 0.1, 1 and 10 μg/ml by progressive dilutions;
Traumatic acid: neutralized with sodium hydroxyde and solubilized in water, then brought to the final concentrations of 0.1, 1 and 10 μg/ml by progressive dilutions with the culture medium.
The compounds are added to the cells after 24 hours culture. The cells number is measured by colorimetry with the neutral red intravital stain after 24, 48, 72 hours of incubation.

Compound `Clc1ccc(COC(C[n+]2cc[nH]c2)c2ccc(Cl)cc2Cl)c(Cl)c1.Clc1ccc(COC(C[n+]2cc[nH]c2)c2ccc(Cl)cc2Cl)c(Cl)c1.O=C([O-])/C=C/CCCCCCCCC(=O)[O-]` (racemic) [miconazole trans-traumatate] registered an organic solvent solubility in [1] (in ethanol) above 10000 µg/mL. In data set [1] (water), this compound returned a solubility in water above 10000 µg/mL.

`CCCCCCCCCCCCCCCC[N+](C)(C)Cc1ccccc1.[Cl-]` [BMA Chloride, benzyldimethylhexadecylammonium chloride, reference compound]: the bacterial diffusion halo entry in data set [2] (sol. 0.1%) is recorded as “n.h”; in data set [2] (sol. 0.5%), 12; in data set [2] (sol. 1%) it was 14; with E. Coli ATCC.35218 (sol. 0.1%) it was “n.h”; with E. Coli ATCC.35218 (sol. 0.5%), “n.h”; in the data set on E. Coli ATCC.35218 (sol. 1%), 13. Moreover, the bacterial diffusion halo entry in the data set on PS Maltophila ATCC.13637 (sol. 0.1%) is “n.h”; in the data set on PS Maltophila ATCC.13637 (sol. 0.5%), “n.h”; in the data set on PS Maltophila ATCC.13637 (sol. 1%) it was 15; in the data set with PS Cepacia ATCC.25416 (sol. 0.1%), 12; in the data set on PS Cepacia ATCC.25416 (sol. 0.5%), 15; in the data set on PS Cepacia ATCC.25416 (sol. 1%), 15. Moreover, the bacterial diffusion halo in [3] (sol. 0.1%) turned out to be 15; in [3] (sol. 0.5%), 18; in data set [3] (sol. 1%) it was 19; in data set [4] (sol. 0.1%), 13; in data set [4] (sol. 0.5%), 15; in data set [4] (sol. 1%) it was 16. In addition, the bacterial diffusion halo is recorded as 13 in data set [5] (sol. 0.1%); 16 in data set [5] (sol. 0.5%); 19 in data set [5] (sol. 1%); 17 in data set [6] (sol. 0.1%); 22 in data set [6] (sol. 0.5%); 22 in [6] (sol. 1%). The bacterial diffusion halo in [7] (sol. 0.1%) is recorded as 12; in data set [7] (sol. 0.5%), 14; in [7] (sol. 1%), 15.

On to `CCCCCCCCCCCCCCCC[N+](C)(C)C.[Br-]` [ETA Bromide, hexadecyltrimethylammonium bromide, reference compound], for which the bacterial diffusion halo result is “n.h” in data set [2] (sol. 0.1%); “n.h” in data set [2] (sol. 0.5%); “n.h” in [2] (sol. 1%); “n.h” in the data set on E. Coli ATCC.35218 (sol. 0.1%); 13 in the data set on E. Coli ATCC.35218 (sol. 0.5%); 15 in the data set with E. Coli ATCC.35218 (sol. 1%). Also, the bacterial diffusion halo result in the data set on PS Maltophila ATCC.13637 (sol. 0.1%) was “n.h”; in the data set with PS Maltophila ATCC.13637 (sol. 0.5%), 15; in the data set with PS Maltophila ATCC.13637 (sol. 1%) it was 21; in the data set on PS Cepacia ATCC.25416 (sol. 0.1%) it was 18; in the data set with PS Cepacia ATCC.25416 (sol. 0.5%) it was 19; with PS Cepacia ATCC.25416 (sol. 1%), 22. Besides, the bacterial diffusion halo came to 20 in [3] (sol. 0.1%); 22 in [3] (sol. 0.5%); 22 in [3] (sol. 1%); 19 in data set [4] (sol. 0.1%); 24 in data set [4] (sol. 0.5%); 25 in data set [4] (sol. 1%). Also, the bacterial diffusion halo in data set [5] (sol. 0.1%) is on record as 19; in data set [5] (sol. 0.5%) it was 22; in data set [5] (sol. 1%) it was 22; in data set [6] (sol. 0.1%), 21; in [6] (sol. 0.5%) it was 24; in data set [6] (sol. 1%) it was 24. Also, the bacterial diffusion halo in [7] (sol. 0.1%) is listed as 20; in data set [7] (sol. 0.5%), 22; in data set [7] (sol. 1%), 22.

For `NCCO.O=C(O)/C=C/CCCCCCCCC(=O)O` [ethanolamine traumatate, ethanolamine trans-traumatate], the “effect on cells proliferation” value in the data set with 3T3 fibroblasts (0.1 μg/ml, in words) was “able to affect cells proliferation according to a not statistically significant trend”. In addition, the “effect on cellular proliferation” value in the data set with 3T3 fibroblasts (1 μg/ml, in words, ETA salt > ethanolamine salt = traumatic acid) was “able to increase cellular proliferation”. Besides, the “cells numeration (colorimetric, neutral red)” value with 3T3 fibroblasts (24 hours of incubation, 0.1 (head: μg/ml), control 0.579 ± 0.021) is listed as 0.562 ± 0.013; in the data set with 3T3 fibroblasts (24 hours of incubation, 1.0 (head: μg/ml), control 0.579 ± 0.021) it was 0.609 ± 0.033; with 3T3 fibroblasts (24 hours of incubation, 10.0 (head: μg/ml), control 0.579 ± 0.021), 0.553 ± 0.027; with 3T3 fibroblasts (48 hours of incubation, 0.1 (head: μg/ml), control 1.334 ± 0.050) it was 1.415 ± 0.106; in the data set with 3T3 fibroblasts (48 hours of incubation, 1.0 (head: μg/ml), control 1.334 ± 0.050) it was 1.435 ± 0.082; in the data set on 3T3 fibroblasts (48 hours of incubation, 10.0 (head: μg/ml), control 1.334 ± 0.050, ** p < 0.01 significant reduction), 1.415 ± 0.132. Moreover, the “cells numeration (colorimetric, neutral red)” value in the data set with 3T3 fibroblasts (72 hours of incubation, 0.1 (head: μg/ml), control 2.360 ± 0.125) is recorded as 2.382 ± 0.039; in the data set on 3T3 fibroblasts (72 hours of incubation, 1.0 (head: μg/ml), control 2.360 ± 0.125) it was 2.463 ± 0.100; with 3T3 fibroblasts (72 hours of incubation, 10.0 (head: μg/ml), control 2.360 ± 0.125, ** p < 0.01 significant reduction), 2.408 ± 0.085. The “time necessary for the cells to reach the confluence” value in the data set with 3T3 fibroblasts (side control experiment, ETA and ethanolamine salts > traumatic acid) is listed as “reduce the time normally necessary for the cells to reach the confluence”. For the same compound, the solubility (usually the dissolved amount per volume that the medium holds) is above 10000 µg/mL in data set [1] (ethanol, organic solvent or mixture) and above 10000 µg/mL in data set [1] (water).
